Measurements from article PMC8803428, “Pharmacokinetics of Ginsenoside Rb1, Rg3, Rk1, Rg5, F2, and Compound K from Red Ginseng Extract in Healthy Korean Volunteers” (Evidence-based Complementary and Alternative Medicine : eCAM, 2022).
Read-outs that look alike come from different tables or passages of the source.

Legend:
[1] = Stability of the ginsenosides in human plasma (QC samples, LC-MS/MS method validation); assay type: in vitro ADME; conditions: human; for Short-term stability, concentration found: 19 h; for Autosampler stability, concentration found: 34 h; for Long-term stability, concentration found: 50 days
Method: The LC-MS/MS method was validated to determine selectivity, lower limits of quantification (LLOQ), accuracy, precision, recovery, matrix effect, and stability, according to the guideline for validating the bioanalytical method. The selectivity of the method was evaluated by comparison of blank plasma from six different men to the corresponding spiked plasma sample at the level of LLOQ to investigate the potential interferences at the LC chromatographic conditions for ginsenoside analytes and IS. The signal-to-noise ratio (S/N) of the LLOQ sample was at least five times the response compared to the blank samples. Each calibration curve was constructed by plotting the peak area ratio (y) of the analyte to IS against the spiked concentrations (x) of each analyte. Linearity was assessed by weighted (1/x^2) least squares regression analysis. The LLOQ was defined as the lowest concentration on the calibration curve with an S/N ratio of 10, where the precision and accuracy bias were within ±20% by five replicate analyses. The intra- and interday precision and accuracy assessments were performed at four concentrations with five replicates on the same day and three consecutive days, respectively. The acceptance criterion recommended by the guideline of precision and the accuracy was ±15% of the nominal concentration. The recovery of the seven ginsenosides was determined at three QC levels with three replicates by comparing the peak areas of plasma extracts spiked with analytes before extraction with those of the postextraction spiked samples at the same concentration. The matrix effects were investigated by comparing the peak areas of the analytes dissolved in the pretreated blank plasma with the corresponding concentrations prepared in the reconstitution solution with three replicates. The stability of the analytes in human plasma was assessed by analyzing five replicates of plasma samples at low, medium, and high QC levels under four different conditions. Short-term stability was evaluated after the exposure of QC samples to room temperature for 19 h before processing and analysis. The freeze and thaw stability was tested after three repeated cycles of thawing at room temperature and freezing at approximately −70°C. The long-term stability was assessed after storage at approximately −70°C for 50 days. The post-preparative stability was examined after the exposure of processed samples at ambient temperature (stored in an HPLC autosampler) for 34 h.

[2] = set-up: method as in earlier work; conditions: after oral Korean Red ginseng extract, ref 25 (Kim et al.); cited from earlier work
[3] = Pharmacokinetics of ginsenosides in plasma after a single oral dose of RG or BRG capsules in healthy Korean men (LC-MS/MS); assay type: in vivo, human; conditions: in vivo; for half-life: T 1/2; for Tmax: T max
Excerpt: This study was designed as a randomized, open-label, single-dose, crossover study with washout every 1 week to evaluate the pharmacokinetics and safety of ginsenosides. Subjects were randomly assigned to either the RG or BRG group during the first period of the study (Figure 2). After 1 week of the washout period, other products that were not received in the first period were provided. All enrolled subjects were hospitalized at Bestian Clinical Trial Center on the day before taking RG or BRG. Subjects were provided regular meals, and additional food intake was restricted after the meal. The next day, the subjects who had maintained the fasting state for 10 h took the capsules corresponding to 5 g of RG and BRG orally. Water was restricted for 1 h before and after intake, and food intake was restricted for 4 h after administration. After 4 h, all subjects received a standardized meal. In addition, lying down or sleeping was prohibited for 8 h after oral administration. Blood samples (5 mL) were collected before dosing and at each time point (0, 0.5, 1, 2, 4, 6, 8, 10, 12, and 24 h) after dosing. All blood samples were collected in heparin-treated tubes. The blood samples were promptly centrifuged at 3,000 rpm for 10 min at 4°C, and the plasma samples obtained were stored in a deep freezer at −70 ± 10°C until assay.
All analyses were performed using an Agilent 1200 series HPLC system (Agilent) with a Luna Phenyl-Hexyl column (2.0 × 150 mm, 5 μm; Phenomenex, CA, USA). The mobile phase comprised water (solvent A) and acetonitrile (solvent B) containing 0.1% formic acid. The flow rate of the mobile phase was 0.25–0.35 mL/min. The initial condition of 70% solvent A was set to 5% solvent A over 15 min. The content of ginsenosides in human plasma was measured using an API 5500 mass spectrometer (AB Sciex, Foster City, CA, USA) capable of multiple reaction monitoring (MRM). The parent-daughter ion pairs monitored were 845.5 ⟶ 799.6 for Rg1, 1153.6 ⟶ 1107.5 for Rb1, 829.4 ⟶ 783.5 for Rg3, and F2, 811.4 ⟶ 161.0 for Rg5 and Rk1, 667.4 ⟶ 161.0 for CK, and 825.4 ⟶ 779.3 for digoxin as an IS in the negative ion mode. Nitrogen gas was used in the nebulizer and the collision cell. The ion spray voltage was set to 5500 V.
Standard plasma samples were prepared such that each ginsenoside was in the concentration range of 0.5–100 ng/mL; 10 μL of a standard mixture of six kinds of ginsenosides (Rg1, Rb1, Rg5 + Rk1, F2, and CK) was added to 90 μL of blank human plasma. Rg3 was prepared in the concentration range of 0.2–40 ng/mL. Standard plasma samples (100 μL) were added to 200 μL of methanol containing 50 ng/mL digoxin, an IS. These were mixed for 1 min and then centrifuged at 12,000 rpm for 5 min at 4°C. Then, 100 μL of the supernatant was transferred to an LC vial, and 10 μL was injected into the LC-MS/MS system. Plasma samples stored at −70°C were thawed at room temperature. Samples for LC-MS/MS analysis were pretreated in the same manner as standard plasma samples.
Plasma concentrations of seven ginsenosides were calculated from calibration curves by calculating the ratio of the peak area of the test substance to the peak area of the IS. The following pharmacokinetic parameters were measured using Phoenix WinNonlin 6.3 (Pharsight Co, CA, USA): time to reach maximum observed plasma drug concentration (Tmax), maximum observed plasma drug concentration (Cmax), area under the plasma drug concentration-time curve from 0 h to the final measured time (AUC(0–t)), area under the plasma drug concentration–time curve from 0 h to infinity (AUC(0–∞)), and terminal elimination half-life (t1/2).

SMILES | Freeze-thaw stability, concentration found ([1]; 1.5 ng/mL) [%] | Freeze-thaw stability, concentration found ([1]; 80 ng/mL) [%] | Short-term stability, concentration found ([1]; 1.5 ng/mL) [%] | Short-term stability, concentration found ([1]; 80 ng/mL) [%] | Autosampler stability, concentration found ([1]; 1.5 ng/mL) [%] | Autosampler stability, concentration found ([1]; 80 ng/mL) [%] | Long-term stability, concentration found ([1]; 1.5 ng/mL) [%] | Long-term stability, concentration found ([1]; 80 ng/mL) [%] | detection in plasma at the initial time point (0 h) of the second treatment period [3] | AUC(0-inf) ([3]; male, human, po) [ng·h/mL] | half-life ([3]; male, human, po) [h] | Tmax ([3]; male, human, po) [h] | also measured
CC(C)=CCCC(C)(OC1OC(CO)C(O)C(O)C1O)C1CCC2(C)C1C(O)CC1C3(C)CCC(O)C(C)(C)C3CCC12C (stereo not shown) [CK, compound K] | 104.03 ± 7.57 | 96.17 ± 2.51 | 99.90 ± 4.38 | 98.69 ± 2.03 | 101.24 ± 4.59 | 99.56 ± 1.44 | 103.25 ± 4.03 | 103.02 ± 5.53 | did not detect | 457 ± 259 | 7.72 ± 4.66 | 8.15 ± 10.2 | Cmax [2]: 8.35 ± 1.97 ng/mL; half-life of CK compared with that of Rb1 [2]: seven times shorter; AUC(0–t) of CK, times higher than that of F2 ([3]; male, human): > 5.03 times; mean Tmax in the RG group relative to the BRG group (times lower) ([3]; male, human): approximately 1.71 times; AUC(0–t) in the BRG group, times higher than in the RG group ([3]; male, human, po): > 28.0 times; AUC(0–∞) ([3]; male, human, po): 3.72 ± 7.91 ng·h/mL; T 1/2 ([3]; male, human, po): 1.36 ± 2.61 h; T max ([3]; male, human, po): 4.77 ± 3.61 h
CC(C)=CCC[C@](C)(O[C@@H]1O[C@H](CO)[C@@H](O)[C@H](O)[C@H]1O)[C@H]1CC[C@]2(C)[C@@H]1[C@H](O)C[C@@H]1[C@@]3(C)CC[C@H](O[C@@H]4O[C@H](CO)[C@@H](O)[C@H](O)[C@H]4O)C(C)(C)[C@@H]3CC[C@]12C [Ginsenoside F2, ginsenoside F2] | 98.29 ± 4.06 | 95.95 ± 1.10 | 99.21 ± 7.70 | 96.53 ± 4.04 | 99.02 ± 8.01 | 96.29 ± 0.99 | 101.83 ± 3.76 | 99.02 ± 2.04 | did not detect | 90.7 ± 43 | 9.77 ± 7.71 | 6.62 ± 1.71 | AUC(0-t) ([3]; male, human, po, AUC(0–t)): 74.1 ± 33 ng·h/mL; Cmax ([3]; male, human, po, C max): 5.83 ± 2.35 ng/mL
